The assay concerns the target T1, JAK1 kinase (Homo sapiens, UniProt P23458).
T1 construct: purchased Invitrogen PV4744
Nature of the assay: In vitro inhibitory activity on JAK1 kinase (ADP-Glo Kinase Assay). It counts as biochemical. Conditions: JAK1 kinase 4 nM, 1 mM ATP. As to the method:
Test Example 1: Determination of In Vitro Inhibitory Activity of the Compounds of the Present Invention on JAK1 Kinase Experimental materials: JAK1 kinase (Invitrogen, PV4744), ATP (Promega, V915B), ADP-Glo Kinase Assay (Promega, V9101), IRS1 (Signalchem, 140-58-1000). Sample preparation: The compounds of the present invention and the control product were dissolved in DMSO solvent respectively to formulate into 10 mM initial liquid. The maximum concentration of the compound was 10 μM, 3-fold dilution, 10 concentration gradients, and duplicate wells for each concentration gradient. Experimental processs: 0.1 μL of the compound to be tested was transferred into a 384 reaction plate (PE, 6007290) via Echo and centrifuged at 1000 rpm/min for 1 min. 5 μL JAK1 kinase (final concentration of 4 nM) was transferred into the 384 reaction plate, which was then centrifuged at 1000 rpm/min for 1 min, and incubated at 25° C. for 15 min. 5 μL substrate mixture (1 mM ATP, IRS1 0.05 mg/ml, kinase buffer solution) was transferred into the 384 reaction plate, which was then centrifuged at 1000 rpm/min for 1 min, and incubated at 25° C. for 60 min. 10 μL ADP-Glo was transferred into the 384 reaction plate, which was then centrifuged at 1000 rpm/min for 1 min, and incubated at 25° C. for 40 min. 20 μL test solution was transferred into the 384 reaction plate, which was then centrifuged at 1000 rpm/min for 1 min and incubated at 25° C. for 40 min. RLU (Relative luminescence unit) signal was read by using an Envision multifunctional plate reader. The signal intensity was used to characterize the degree of the kinase activity. […] IC50 value of 0-100 nM is shown as A, IC50 value of 100-300 nM is shown as B, IC50 value of 300-1000 nM is shown as C, and IC50 value which is greater than 1000 nM is shown as D. NT means not tested.
A general note: In ADP-Glo the light output rises with the ADP produced.

This note sets out measurements from patent publication US20220348572A1, “BRIDGED HETEROCYCLYL-SUBSTITUTED PYRIMIDINE COMPOUND, PREPARATION METHOD THEREFOR, AND PHARMACEUTICAL USE THEREOF” (The National Institutes of Pharmaceutical R&D Co., Ltd., priority 2019, published 2022).

T1 sequence (P23458 866-1154 limits assumed): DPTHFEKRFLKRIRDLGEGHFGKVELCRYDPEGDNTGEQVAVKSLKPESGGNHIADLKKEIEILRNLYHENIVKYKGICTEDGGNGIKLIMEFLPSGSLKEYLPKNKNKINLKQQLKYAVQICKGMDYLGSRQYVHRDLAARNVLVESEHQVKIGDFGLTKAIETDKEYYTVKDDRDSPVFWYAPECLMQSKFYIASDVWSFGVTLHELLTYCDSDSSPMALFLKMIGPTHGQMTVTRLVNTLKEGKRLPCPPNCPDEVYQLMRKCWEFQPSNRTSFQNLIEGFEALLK

Regarding `Cc1cnc(Nc2cnn(CCO)c2)nc1C1=CC2CCC(C1)N2C(=O)NCC(F)(F)F` (centres unmarked) [Compound 28, 3-(2-((1-(2-hydroxyethyl)-1H-pyrazol-4-yl)amino)-5-methylpyrimidin-4-yl)-N-(2,2,2-trifluoroethyl)-8-azabicyclo[3.2.1]oct-2-ene-8-carboxamide], the IC50 – broadly, the concentration that inhibits the measured activity by half – is less than 100 nM.
As to `Cn1cc(Nc2ncc(Cl)c(C3=CC4CCC(C3)N4C(=O)NCC(F)(F)F)n2)cn1` (centres unmarked) [Compound 20, 3-(5-chloro-2-((1-methyl-1H-pyrazol-4-yl)amino)pyrimidin-4-yl)-N-(2,2,2-trifluoroethyl)-8-azabicyclo[3.2.1]oct-2-ene-8-carboxamide], the IC50 is less than 100 nM.
Molecule `NC(=O)Cn1cc(Nc2nccc(C3=CC4CCC(C3)N4C(=O)[C@@H]3CC3(F)F)n2)cn1` (stereo partly drawn) [Compound 38, 2-(4-((4-(8-((S)-2,2-Difluorocyclopropane-1-formyl)-8-azabicyclo[3.2.1]oct-2-en-3-yl)pyrimidin-2-yl)amino)-1H-pyrazol-1-yl)acetamide] had an IC50 of less than 100 nM.
In the case of `Cn1cc(Nc2nccc(C3=CC4CCC(C3)N4C(=O)N3CCC(C(F)(F)F)C3)n2)cn1` (centres unmarked) [Compound 9, (3-(2-((1-methyl-1H-pyrazol-4-yl)amino)pyrimidin-4-yl)-8-azabicyclo[3.2.1]oct-2-en-8-yl)(3-(trifluoromethyl)pyrrolidin-1-yl)methanone], the IC50 is more than 1000 nM.
As for `Cn1cc(Nc2nccc(C3=CC4CCC(C3)N4CC3(C)COC3)n2)cn1` (centres unmarked) [Compound 87, N-(1-methyl-1H-pyrazol-4-yl)-4-(8-((3-methyloxetan-3-yl)methyl)-8-azabicyclo[3.2.1]oct-2-en-3-yl)pyrimidin-2-amine], the IC50 was more than 1000 nM.
For the molecule `O=C(NCC(F)(F)F)N1C2C=C(c3ccnc(Nc4cnn(C5CC5)c4)n3)CC1CC2` (centres unmarked) [Compound 43, 3-(2-((1-cyclopropyl-1H-pyrazol-4-yl)amino)pyrimidin-4-yl)-N-(2,2,2-trifluoroethyl)-8-azabicyclo[3.2.1]oct-2-ene-8-carboxamide], the concentration for half-maximal inhibition (IC50) is less than 100 nM.
As for `Cc1cnc(Nc2cnn(C)c2)nc1C1=CC2CCC(C1)N2C(=O)NCC(F)(F)F` (centres unmarked) [Compound 19, 3-(5-methyl-2-((1-methyl-1H-pyrazol-4-yl)amino)pyrimidin-4-yl)-N-(2,2,2-trifluoroethyl)-8-azabicyclo[3.2.1]oct-2-ene-8-carboxamide], the IC50 is less than 100 nM.
The molecule `C[C@H](NC(=O)N1C2C=C(c3ccnc(Nc4cnn(C)c4)n3)CC1CC2)C(F)(F)F` (stereo partly drawn) [Compound 55, 3-(2-((1-Methyl-1H-pyrazol-4-yl)amino)pyrimidin-4-yl)-N-((S)-1,1,1-trifluoropropane-2-yl)-8-azabicyclo[3.2.1]oct-2-ene-8-carboxamide] had an IC50 of less than 100 nM.
The molecule `Cc1cnc(Nc2cnn(CC(C)(C)O)c2)nc1C1=CC2CCC(C1)N2C(=O)NCC(F)(F)F` (centres unmarked) [Compound 29, 3-(2-((1-(2-hydroxy-2-methylpropyl)-1H-pyrazol-4-yl)amino)-5-methylpyrimidin-4-yl)-N-(2,2,2-trifluoroethyl)-8-azabicyclo[3.2.1]oct-2-ene-8-carboxamide] returned an IC50 of less than 100 nM.
For `Cc1cnc(Nc2cnn(C3COC3)c2)nc1C1=CC2CCC(C1)N2C(=O)NCC(F)(F)F` (centres unmarked) [Compound 30, 3-(5-Methyl-2-((1-(oxetan-3-yl)-1H-pyrazol-4-yl)amino)pyrimidin-4-yl)-N-(2,2,2-trifluoroethyl)-8-azabicyclo[3.2.1]oct-2-ene-8-carboxamide], the IC50 is less than 100 nM.
Under `Cn1cc(Nc2nccc(C3=CC4CCC(C3)N4C(=O)C34CC(F)(C3)C4)n2)cn1` (centres unmarked) [Compound 74, (3-fluorobicyclo[1.1.1]pentan-1-yl)(3-(2-((1-methyl-1H-pyrazol-4-yl)amino)pyrimidin-4-yl)-8-azabicyclo[3.2.1]oct-2-en-8-yl)methanone] stands more than 1000 nM.
Molecule `Cn1cc(Nc2nccc(C3=CC4CCC(C3)N4C(=O)C3(C#N)CCOCC3)n2)cn1` (centres unmarked) [Compound 64, 4-(3-(2-((1-methyl-1H-pyrazol-4-yl)amino)pyrimidin-4-yl)-8-azabicyclo[3.2.1]oct-2-ene-8-carbonyl)tetrahydro-2H-pyran-4-cyano] showed an IC50 of 300 to 1000 nM.
Consider `Cn1cc(Nc2nccc(C3=CC4CCC(C3)N4C(=O)C3CC3(C)C)n2)cn1` (centres unmarked) [Compound 60, (2,2-Dimethylcyclopropyl)(3-(2-((1-methyl-1H-pyrazol-4-yl)amino)pyrimidin-4-yl)-8-azabicyclo[3.2.1]oct-2-en-8-yl)methanone], for which the IC50 is more than 1000 nM.
`O=C([C@@H]1CC1(F)F)N1C2C=C(c3ccnc(Nc4cnn(C5COC5)c4)n3)CC1CC2` (stereo partly drawn) [Compound 37, ((S)-2,2-difluorocyclopropyl)(3-(2-((1-(oxetan-3-yl)-1H-pyrazol-4-yl)amino)pyrimidin-4-yl)-8-azabicyclo[3.2.1]oct-2-en-8-yl)methanone] yielded a half-maximal inhibitory concentration (IC50) of 300 to 1000 nM.
For `C#CCC(=O)N1C2C=C(c3ccnc(Nc4cnn(C)c4)n3)CC1CC2` (centres unmarked) [Compound 53, 1-(3-(2-((1-methyl-1H-pyrazol-4-yl)amino)pyrimidin-4-yl)-8-azabicyclo[3.2.1]oct-2-en-8-yl)but-3-yn-1-one] the value was more than 1000 nM; for `Cn1cc(Nc2nccc(C3=CC4CCC(C3)N4C(=O)N3CCC(F)(F)C3)n2)cn1` (centres unmarked) [Compound 8, (3,3-difluoropyrrolidin-1-yl)(3-(2-((1-methyl-1H-pyrazol-4-yl)amino)pyrimidin-4-yl)-8-azabicyclo[3.2.1]oct-2-en-8-yl)methanone], 300 to 1000 nM; for `Cn1cc(Nc2nccc(C3=CC4CCC(C3)N4C(=O)COCC(F)(F)F)n2)cn1` (centres unmarked) [Compound 69, 1-(3-(2-((1-methyl-1H-pyrazol-4-yl)amino)pyrimidin-4-yl)-8-azabicyclo[3.2.1]oct-2-en-8-yl)-2-(2,2,2-trifluoroethoxy)-1-one], 300 to 1000 nM.
The molecule `CCn1cc(Nc2nccc(C3=CC4CCC(C3)N4C(=O)[C@@H]3CC3(F)F)n2)cn1` (stereo partly drawn) [Compound 45, ((S)-2,2-Difluorocyclopropyl)(3-(2-((1-ethyl-1H-pyrazol-4-yl)amino)pyrimidin-4-yl)-8-azabicyclo[3.2.1]oct-2-en-8-yl)methanone] had an IC50 of 100 to 300 nM.
As to `O=C(NCC(F)(F)F)N1C2C=C(c3nc(Nc4cnn(C(F)F)c4)ncc3F)CC1CC2` (centres unmarked) [Compound 24, 3-(2-((1-(difluoromethyl)-1H-pyrazol-4-yl)amino)-5-fluoropyrimidin-4-yl)-N-(2,2,2-trifluoroethyl)-8-azabicyclo[3.2.1]oct-2-ene-8-carboxamide], the IC50 was less than 100 nM.
With `Cn1cc(Nc2ncc(C#N)c(C3=CC4CCC(C3)N4C(=O)NCC(F)(F)F)n2)cn1` (centres unmarked) [Compound 35, 3-(5-cyano-2-((1-methyl-1H-pyrazol-4-yl)amino)pyrimidin-4-yl)-N-(2,2,2-trifluoroethyl)-8-azabicyclo[3.2.1]oct-2-ene-8-carboxamide], the IC50 was 100 to 300 nM.
On to `Cc1cnc(Nc2cnn(CC(C)(C)O)c2)nc1C1=C[C@H]2CC[C@@H](C1)N2C(=O)NCC(F)(F)F` [Compound 29-b, (1R,5S)-3-(2-((1-(2-Hydroxy-2-methylpropyl)-1H-pyrazol-4-yl)amino)-5-methylpyrimidin-4-yl)-N-(2,2,2-trifluoroethyl)-8-azabicyclo[3.2.1]oct-2-ene-8-carboxamide], for which the IC50 is less than 100 nM.
Take `Cc1cnc(Nc2cnn(C)c2)nc1C1=CC2CCC(C1)N2C(=O)[C@@H]1CC1(F)F` (stereo partly drawn) [Compound 22, ((S)-2,2-difluorocyclopropyl)(3-(5-methyl-2-((1-methyl-1H-pyrazol-4-yl)amino)pyrimidin-4-yl)-8-azabicyclo[3.2.1]oct-2-en-8-yl)methanone]: the IC50 was less than 100 nM.
Regarding `Cn1cc(Nc2nccc(C3=CC4CCC(C3)N4S(=O)(=O)NCC#N)n2)cn1` (centres unmarked) [Compound 4, N-(cyanomethyl)-3-(2-((1-methyl-1H-pyrazol-4-yl)amino)pyrimidin-4-yl)-8-azabicyclo[3.2.1]oct-2-ene-8-sulfonamide], the IC50 was more than 1000 nM.
As to `Cn1cc(Nc2nccc(C3=CC4CCC(C3)N4C(=O)C3(C#N)CC3)n2)cn1` (centres unmarked) [Compound 63, 1-(3-(2-((1-methyl-1H-pyrazol-4-yl)amino)pyrimidin-4-yl)-8-azabicyclo[3.2.1]oct-2-ene-8-formyl)cyclopropane-1-carbonitrile], the IC50 fell in the range of 300 to 1000 nM.
In turn, `Cn1cc(Nc2nccc(C3=CC4CCC(C3)N4C(=O)NCC(F)F)n2)cn1` (centres unmarked) [Compound 44, N-(2,2-difluoroethyl)-3-(2-((1-methyl-1H-pyrazol-4-yl)amino)pyrimidin-4-yl)-8-azabicyclo[3.2.1]oct-2-ene-8-carboxamide] yielded an IC50 of less than 100 nM.
`Cn1cc(Nc2nccc(C3=CC4CCC(C3)N4C(=O)N3CC(C#N)C3)n2)cn1` (centres unmarked) [Compound 10, 1-(3-(2-((1-methyl-1H-pyrazol-4-yl)amino)pyrimidin-4-yl)-8-azabicyclo[3.2.1]oct-2-ene-8-carbonyl)azetidine-3-nitrile] registered an IC50 of more than 1000 nM.
